Tests used:
[1] = tested on: transplanted tumor of human breast cancer cell MCF-7; test: MCF-7 transplanted tumor in nude mice
Description: (§1) Then cell concentration was adjusted to 1×10^7/ml with matrigel, then each nude mouse was inoculated subcutaneously with 0.2 ml of cells at its right armpit and recorded as the first day of inoculation. When the tumor grows to be greater than or equal to 100 mm^3, the mice were randomly divided into 11 groups with 6 mice in each group: a model group, a cyclophosphamide group, isovaleryl spiramycin I groups with doses of 25, 50 and 100 mg/kg, isovaleryl spiramycin II groups with doses of 25, 50 and 100 mg/kg, and isovaleryl spiramycin III groups with doses of 25, 50 and 100 mg/kg. Each group was continuously administered intragastrically for 30 days with a dose of 20 ml/kg. The mice were sacrificed the next day after drug withdrawal and the indicators were tested. The long diameter and short diameter of the tumor, and the body weight of each mouse were recorded every 3 days from drug administration to nude mouse sacrifice.
(§2) The body weight of the nude mice and the long diameter (a) and short diameter (b) of the transplanted tumor were measured every 3 days, and the tumor volume (v), relative tumor volume (RTV) and relative tumor proliferation rate (T/C) are calculated respectively according to the following formulas, wherein V=a×b^2/2; RTV=V/V0 (V0 is the tumor volume before administration, V is the tumor volume before sacrifice), and T/C (%)=treatment group RTV/model control group RTV×100%.
(§3) Each mouse was weighed and sacrificed. After the tumor was completely stripped off from the body of the mouse, the non-tumor tissues such as blood stains and fat were removed to weigh the tumor and calculate the tumor growth inhibition rate. The average tumor weight of each group of mice is used as an indicator of efficacy. Tumor growth inhibition rate (%)=(1−the average tumor weight of the treatment group/the average tumor weight of the model group)×100%.

[2] = tested on: transplanted tumor of human glioma cell U251; test: U251 transplanted tumor in nude mice; settings: for Tumor Volume (mm3) (d 1): d1
Description: as §1, with “U251 cells in a logarithmic growth phase were taken and subjected to a trypan blue exclusion experiment showing that the cell viability was more than 95%, then the cells were subjected to trypsinization, centrifugation, and supernatant removal. Then” for “Then”
as §2, §3

[3] = tested on: transplanted tumor of human bladder cancer cell T-24; test: T-24 transplanted tumor in nude mice; settings: for Tumor Volume (mm3) (d30): d 30
Description: as §1, with “group:” for “group: a model group, a cyclophosphamide group,”
as §2, §3

[4] = MCF-7, 25 mg/kg (low dose) i.g. 30 days
[5] = MCF-7, 50 mg/kg (medium dose) i.g. 30 days
[6] = MCF-7, 100 mg/kg (high dose) i.g. 30 days
[7] = U251, high dose (100 mg/kg in method) i.g. 30 days
[8] = U251, low dose (25 mg/kg in method) i.g. 30 days
[9] = U251, medium dose (50 mg/kg in method) i.g. 30 days
[10] = T-24, high dose (100 mg/kg in method) i.g. 30 days
[11] = T-24, low dose (25 mg/kg in method) i.g. 30 days
[12] = T-24, medium dose (50 mg/kg in method) i.g. 30 days

SMILES: CCC(=O)O[C@@H]1CC(=O)O[C@H](C)C/C=C/C=C/[C@H](O[C@H]2CC[C@H](N(C)C)[C@@H](C)O2)[C@H](C)C[C@H](CC=O)[C@H](O[C@@H]2O[C@H](C)[C@@H](O[C@H]3C[C@@](C)(O)[C@@H](OC(=O)CC(C)C)[C@H](C)O3)[C@H](N(C)C)[C@H]2O)[C@H]1OC [Isovaleryl spiramycin III, isovaleryl spiramycin III]
- Inhibition Rate (tumor growth inhibition rate) [1, 4]: 26.75%
- Relative Tumor Proliferation Rate (T/C) [1, 4]: 75.03%
- Relative Tumor Volume (RTV) [1, 4]: 13.13 ± 3.15
- Tumor Volume (d 1) [1, 4]: 137.99 ± 20.99 mm3
- Tumor Volume (d 30) [1, 4]: 1758.49 ± 129.06 mm3
- Tumor Weight [1, 4]: 1.99 ± 0.81 g
- Inhibition Rate (tumor growth inhibition rate) [1, 5]: 39.09%
- Relative Tumor Proliferation Rate (T/C) [1, 5]: 54.92%
- Relative Tumor Volume (RTV) [1, 5]: 9.61 ± 1.66
- Tumor Volume (d 1) [1, 5]: 109.95 ± 13.42 mm3
- Tumor Volume (d 30) [1, 5]: 1043.33 ± 113.01 mm3
- Tumor Weight [1, 5]: 1.66 ± 0.66 g
- Inhibition Rate (tumor growth inhibition rate) ([1]; MCF-7, 50 mg/kg (medium dose) i.g. 30 days, listed as isovaleryl spiramycin III): 39.08%
- Inhibition Rate (tumor growth inhibition rate) [1, 6]: 61.78%
- Relative Tumor Proliferation Rate (T/C) [1, 6]: 34.90%
- Relative Tumor Volume (RTV) [1, 6]: 5.17 ± 0.64
- Tumor Volume (d 1) [1, 6]: 113.14 ± 9.02 mm3
- Tumor Volume (d 30) [1, 6]: 684.21 ± 115.00 mm3
- Tumor Weight [1, 6]: 1.03 ± 0.54 g
- Relative Tumor Proliferation Rate (T/C) ([1]; MCF-7, 100 mg/kg (high dose) i.g. 30 days, listed as isovaleryl spiramycin III): 34.91%
- tumor volume and relative tumor volume compared with the model group ([1]; MCF-7, low, medium and high doses, P<0.05): significantly lower
- mouse weight compared with the model group ([1]; mouse, in vivo): no significant changes
- Relative Tumor Proliferation Rate (T/C) [2, 7]: 41.10%
- tumor growth inhibition rate [2, 7]: 59.56%
- Relative Tumor Proliferation Rate (T/C) [2, 8]: 68.16%
- tumor growth inhibition rate [2, 8]: 15.45%
- tumor volume and relative tumor volume compared with the model group ([2]; U251, low, medium and high doses, P<0.05): significantly lower
- Relative Tumor Proliferation Rate (T/C) [2, 9]: 54.34%
- tumor growth inhibition rate [2, 9]: 32.74%
- Inhibition Rate (%) ([2]; U251 nude mice, 25 mg/kg): 15.45%
- Relative Tumor Proliferation Rate (T/C) ([2]; U251 nude mice, 25 mg/kg): 68.16%
- Relative Tumor Volume (RTV) ([2]; U251 nude mice, 25 mg/kg): 13.47 ± 1.67
- Tumor Weight ([2]; U251 nude mice, 25 mg/kg): 1.17 ± 0.11 g
- Tumor Volume (mm3) (d 1) ([2]; U251 nude mice, 25 mg/kg): 124.24 ± 10.18 mm3
- Tumor Volume (mm3) (d30) ([2]; U251 nude mice, 25 mg/kg): 1413.41 ± 221.90 mm3
- Inhibition Rate (%) ([2]; U251 nude mice, 50 mg/kg): 32.74%
- Relative Tumor Proliferation Rate (T/C) ([2]; U251 nude mice, 50 mg/kg): 54.34%
- Relative Tumor Volume (RTV) ([2]; U251 nude mice, 50 mg/kg): 12.63 ± 1.27
- Tumor Weight ([2]; U251 nude mice, 50 mg/kg): 0.93 ± 0.12 g
- Tumor Volume (mm3) (d 1) ([2]; U251 nude mice, 50 mg/kg): 121.24 ± 9.15 mm3
- Tumor Volume (mm3) (d30) ([2]; U251 nude mice, 50 mg/kg): 1096.57 ± 173.49 mm3
- Inhibition Rate (%) ([2]; U251 nude mice, 100 mg/kg): 59.56%
- Relative Tumor Proliferation Rate (T/C) ([2]; U251 nude mice, 100 mg/kg): 41.10%
- Relative Tumor Volume (RTV) ([2]; U251 nude mice, 100 mg/kg): 10.96 ± 0.82
- Tumor Weight ([2]; U251 nude mice, 100 mg/kg): 0.56 ± 0.05 g
- Tumor Volume (mm3) (d 1) ([2]; U251 nude mice, 100 mg/kg): 120.86 ± 6.34 mm3
- Tumor Volume (mm3) (d30) ([2]; U251 nude mice, 100 mg/kg): 832.79 ± 182.98 mm3
- mouse weight compared with the model group ([2]; mouse, in vivo): no significant changes
- Body Weight (g) (d1) ([2]; mouse, in vivo, 25 mg/kg): 20.96 ± 0.58 g
- Body Weight (g) (d30) ([2]; mouse, in vivo, 25 mg/kg): 20.70 ± 0.51 g
- Body Weight (g) (d1) ([2]; mouse, in vivo, 50 mg/kg): 21.25 ± 0.53 g
- Body Weight (g) (d30) ([2]; mouse, in vivo, 50 mg/kg): 21.10 ± 0.60 g
- Body Weight (g) (d1) ([2]; mouse, in vivo, 100 mg/kg): 21.33 ± 0.62 g
- Body Weight (g) (d30) ([2]; mouse, in vivo, 100 mg/kg): 21.03 ± 0.55 g
- Relative Tumor Proliferation Rate (T/C) [3, 10]: 39.39%
- tumor growth inhibition rate [3, 10]: 61.30%
- Relative Tumor Proliferation Rate (T/C) [3, 11]: 80.34%
- tumor growth inhibition rate [3, 11]: 21.00%
- tumor volume and relative tumor volume compared with the model group ([3]; T-24, low, medium and high doses, P<0.05): significantly lower
- Relative Tumor Proliferation Rate (T/C) [3, 12]: 62.35%
- tumor growth inhibition rate [3, 12]: 44.84%
- Inhibition Rate (%) ([3]; dose 25 mg/kg): 21.00%
- Relative Tumor Proliferation Rate (T/C) ([3]; dose 25 mg/kg): 80.34%
- Relative Tumor Volume (RTV) ([3]; dose 25 mg/kg): 10.61 ± 2.24
- Tumor Weight ([3]; dose 25 mg/kg): 1.48 ± 0.43 g
- Tumor Volume (mm3) (d 1) ([3]; dose 25 mg/kg): 135.55 ± 18.08 mm3
- Tumor Volume (mm3) (d30) ([3]; dose 25 mg/kg): 1427.95 ± 311.97 mm3
- Inhibition Rate (%) ([3]; dose 50 mg/kg): 44.84%
- Relative Tumor Proliferation Rate (T/C) ([3]; dose 50 mg/kg): 62.35%
- Relative Tumor Volume (RTV) ([3]; dose 50 mg/kg): 8.24 ± 0.38
- Tumor Weight ([3]; dose 50 mg/kg): 1.03 ± 0.42 g
- Tumor Volume (mm3) (d 1) ([3]; dose 50 mg/kg): 136.32 ± 15.54 mm3
- Tumor Volume (mm3) (d30) ([3]; dose 50 mg/kg): 1123.28 ± 140.84 mm3
- Inhibition Rate (%) ([3]; dose 100 mg/kg): 61.30%
- Relative Tumor Proliferation Rate (T/C) ([3]; dose 100 mg/kg): 39.39%
- Relative Tumor Volume (RTV) ([3]; dose 100 mg/kg): 5.20 ± 0.71
- Tumor Weight ([3]; dose 100 mg/kg): 0.73 ± 0.20 g
- Tumor Volume (mm3) (d 1) ([3]; dose 100 mg/kg): 134.53 ± 20.46 mm3
- Tumor Volume (mm3) (d30) ([3]; dose 100 mg/kg): 697.48 ± 130.89 mm3
- mouse weight compared with the model group ([3]; mouse, in vivo): no significant changes
- Body Weight (g) (d1) ([3]; mouse, in vivo, 25 mg/kg): 19.57 ± 0.52 g
- Body Weight (g) (d30) ([3]; mouse, in vivo, 25 mg/kg): 25.72 ± 1.53 g
- Body Weight (g) (d1) ([3]; mouse, in vivo, 50 mg/kg): 19.61 ± 0.44 g
- Body Weight (g) (d30) ([3]; mouse, in vivo, 50 mg/kg): 26.47 ± 0.52 g
- Body Weight (g) (d1) ([3]; mouse, in vivo, 100 mg/kg): 19.90 ± 0.58 g
- Body Weight (g) (d30) ([3]; mouse, in vivo, 100 mg/kg): 25.05 ± 0.93 g

Reference: patent publication US20200163984A1, “USE OF ISOVALERYL SPIRAMYCIN I, II AND/OR III IN MANUFACTURING MEDICAMENT FOR TREATING AND/OR PREVENTING TUMOR, AND MEDICAMENT” (SHENYANG FUYANG PHARMACEUTICAL TECHNOLOGY CO., LTD., priority 2017, published 2020)
